Source: ChEMBL document CHEMBL1142498 (J Med Chem, 2008)

Key:
[1] = molecular target: Sodium-dependent serotonin transporter (Homo sapiens, UniProt P31645); assay type: cell-based, JAR
Description: Inhibition of 5-HT transporter-mediated [3H]5HT uptake in human Jar cells

[2] = molecular target: Sodium-dependent serotonin transporter (Rattus norvegicus, UniProt P31652)
Description: Displacement of [3H]paroxetine from serotonin transporter in Sprague-Dawley rat frontal cortical membrane

[3] = molecular target: T1, 5-hydroxytryptamine receptor 1A (Homo sapiens, UniProt P08908)
T1 sequence (P08908 whole entry): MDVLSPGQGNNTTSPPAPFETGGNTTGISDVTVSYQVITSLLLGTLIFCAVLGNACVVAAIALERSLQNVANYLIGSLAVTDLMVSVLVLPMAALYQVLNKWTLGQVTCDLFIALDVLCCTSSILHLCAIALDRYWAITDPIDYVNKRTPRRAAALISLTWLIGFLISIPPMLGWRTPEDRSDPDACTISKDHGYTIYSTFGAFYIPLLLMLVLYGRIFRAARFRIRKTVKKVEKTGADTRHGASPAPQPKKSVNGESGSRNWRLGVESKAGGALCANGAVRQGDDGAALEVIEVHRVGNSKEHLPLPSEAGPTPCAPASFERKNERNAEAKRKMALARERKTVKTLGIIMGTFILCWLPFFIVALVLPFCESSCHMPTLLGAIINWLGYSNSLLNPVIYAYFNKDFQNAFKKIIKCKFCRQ
Description: Activity at human cloned 5HT1A receptor expressed in CHO cells assessed as blockade of 5-HT-stimulated [35S]GTPgammaS binding

Rattus norvegicus = species on record: Rattus norvegicus; assay: Displacement of [3H]prazosin from alpha1 adrenergic receptor in Sprague-Dawley rat cortical membrane at 1 uM

Sequence of Sodium-dependent serotonin transporter (Rattus norvegicus, UniProt P31652) (P31652 whole entry): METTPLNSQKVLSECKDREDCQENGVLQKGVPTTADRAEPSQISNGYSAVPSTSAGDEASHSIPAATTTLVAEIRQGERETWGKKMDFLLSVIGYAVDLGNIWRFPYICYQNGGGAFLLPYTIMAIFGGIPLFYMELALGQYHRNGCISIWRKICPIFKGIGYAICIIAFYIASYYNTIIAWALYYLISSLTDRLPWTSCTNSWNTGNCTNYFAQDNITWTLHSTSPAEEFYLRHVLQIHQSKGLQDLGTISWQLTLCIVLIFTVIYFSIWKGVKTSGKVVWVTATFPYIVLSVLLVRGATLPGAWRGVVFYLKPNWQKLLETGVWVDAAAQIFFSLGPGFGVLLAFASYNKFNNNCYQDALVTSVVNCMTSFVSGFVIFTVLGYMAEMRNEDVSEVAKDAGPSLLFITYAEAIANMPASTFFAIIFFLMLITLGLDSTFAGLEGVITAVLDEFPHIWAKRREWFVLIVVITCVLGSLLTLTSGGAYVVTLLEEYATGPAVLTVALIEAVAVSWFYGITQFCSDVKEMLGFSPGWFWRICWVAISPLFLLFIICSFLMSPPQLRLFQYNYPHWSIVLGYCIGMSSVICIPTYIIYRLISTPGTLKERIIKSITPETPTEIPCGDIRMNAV
Sequence of Sodium-dependent serotonin transporter (Homo sapiens, UniProt P31645) (P31645 whole entry): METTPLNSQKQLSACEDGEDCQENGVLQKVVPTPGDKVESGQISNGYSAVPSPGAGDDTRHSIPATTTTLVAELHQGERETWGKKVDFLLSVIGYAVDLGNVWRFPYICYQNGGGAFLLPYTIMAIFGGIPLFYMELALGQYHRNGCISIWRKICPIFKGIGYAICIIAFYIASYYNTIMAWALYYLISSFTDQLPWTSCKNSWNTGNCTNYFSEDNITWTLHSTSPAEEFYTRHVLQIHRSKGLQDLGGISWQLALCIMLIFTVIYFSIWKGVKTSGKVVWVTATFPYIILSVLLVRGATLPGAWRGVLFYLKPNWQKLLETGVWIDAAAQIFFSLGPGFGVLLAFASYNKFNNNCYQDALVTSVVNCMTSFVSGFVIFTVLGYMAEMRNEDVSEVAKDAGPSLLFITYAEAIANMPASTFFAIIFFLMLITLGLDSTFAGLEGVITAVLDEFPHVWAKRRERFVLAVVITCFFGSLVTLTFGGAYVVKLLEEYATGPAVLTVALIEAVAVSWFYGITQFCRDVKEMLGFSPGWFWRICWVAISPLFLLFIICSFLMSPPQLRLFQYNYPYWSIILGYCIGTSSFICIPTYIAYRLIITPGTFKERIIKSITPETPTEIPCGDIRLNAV

IC50 [1] [nM]	Ki [2] [nM]	IC50 [3] [nM]	Activity (Rattus norvegicus) [%]	Structure (SMILES)	IC50 ([1]; jar) [nM]
> 1000	9.96	–	–	NC(=O)c1ccc(F)c2c1CC(N(CCCCn1ccc3ccc(F)cc31)CC1CC1)CO2 (centres undefined)	–
43.6	6.91	> 1000	31	O=C(NCC1CC1)c1ccc(F)c2c1CC(N(CCCc1c[nH]c3ccc(F)cc13)C1CCC1)CO2 (centres undefined)	–
103	–	–	5	NC(=O)c1ccc(F)c2c1CC(N(CCCCn1ccc3c(F)cccc31)C1CCC1)CO2 (centres undefined)	–
70.6	7.26	–	12	O=C(NC1CCC1)c1ccc(F)c2c1CC(N(CCCc1c[nH]c3ccc(F)cc13)C1CCC1)CO2 (centres undefined)	–
–	–	–	7	CC(CCc1c[nH]c2ccc(F)cc12)N(CC1CC1)C1COc2c(F)ccc(C(N)=O)c2C1 (single isomer, unassigned; (+)) [listing 1 of 2 here]	–
27.9	9.47	> 1000	12	CCNC(=O)c1ccc(F)c2c1CC(N(CCCc1c[nH]c3ccc(F)cc13)C1CCC1)CO2 (centres undefined)	–
899	–	–	30	NC(=O)c1ccc(F)c2c1CC(N(CCCc1c[nH]c3cc(F)ccc13)C1CCC1)CO2 (centres undefined)	–
–	–	–	15	CC(CCc1c[nH]c2ccc(F)cc12)N(CC1CC1)C1COc2c(F)ccc(C(N)=O)c2C1 (single isomer, unassigned; (-)) [listing 1 of 2 here]	–
218	–	> 2000	–	CN(C)C(=O)c1ccc(F)c2c1CC(N(CCCc1c[nH]c3ccc(F)cc13)C1CCC1)CO2 (centres undefined)	–
> 1000	–	> 1000	18	NC(=O)c1ccc(F)c2c1CC(N(CCCCn1ccc3c(F)cccc31)CC1CC1)CO2 (centres undefined)	–
–	–	–	23	NC(=O)c1ccc(F)c2c1C[C@@H](NCC1CCc3[nH]c4ccc(F)cc4c3C1)CO2 (stereo in doubt; 57a) [listing 1 of 2 here]	–
225	–	> 1000	–	NC(=O)c1ccc(F)c2c1CC(N(CCCc1c[nH]c3c(F)cc(F)cc13)C1CCC1)CO2 (single isomer, unassigned; (+)) [listing 1 of 2 here]	–
32.7	7.96	–	21	CCCNC(=O)c1ccc(F)c2c1CC(N(CCCc1c[nH]c3ccc(F)cc13)C1CCC1)CO2 (centres undefined)	–
–	–	–	46	CCCN(CCCc1c[nH]c2ccc(F)cc12)[C@@H]1COc2c(F)ccc(C(N)=O)c2C1	–
–	–	–	19	N#Cc1ccc2[nH]cc(CCCN(C3CCC3)C3COc4c(F)ccc(C(N)=O)c4C3)c2c1 (single isomer, unassigned; (-))	–
> 1000	> 1000	–	15	COc1cccc2c(CCCN(C3CCC3)C3COc4c(F)ccc(C(N)=O)c4C3)c[nH]c12 (centres undefined)	–
> 1000	–	–	–	NC(=O)c1ccc(F)c2c1CC(N(CCCCn1ccc3cc(F)ccc31)CC1CC1)CO2 (centres undefined)	–
> 1000	–	> 1000	14	NC(=O)c1ccc(F)c2c1CC(N(CCCCn1ccc3cccc(F)c31)C1CCC1)CO2 (centres undefined)	–
24.3	2.4	–	–	CCCN(CCCc1c[nH]c2ccc(F)cc12)C1COc2c(F)ccc(C(=O)NC)c2C1 (centres undefined)	–
–	–	405	–	CCCN(CCCc1c[nH]c2ccc(F)cc12)[C@H]1COc2c(F)ccc(C(N)=O)c2C1	–
379	–	–	50	CCCN(CCCc1c[nH]c2ccc(F)cc12)[C@H]1COc2c(F)ccc(OC)c2C1	–
–	–	–	5	NC(=O)c1ccc(F)c2c1CC(N(CCCc1c[nH]c3c(F)cc(F)cc13)C1CCC1)CO2 (single isomer, unassigned; (+)) [listing 2 of 2 here]	–
291	–	–	–	NC(=O)c1ccc(F)c2c1C[C@@H](NCC1CCc3[nH]c4ccc(F)cc4c3C1)CO2 (stereo in doubt; 57a) [listing 2 of 2 here]	–
834	> 1000	419	–	COc1ccc2[nH]cc(CCCN(C3CCC3)C3COc4c(F)ccc(C(N)=O)c4C3)c2c1 (centres undefined)	–

IC50 [1] [nM]	Ki [2] [nM]	IC50 [3] [nM]	Activity (Rattus norvegicus) [%]	Structure (SMILES)	IC50 ([1]; jar) [nM]
> 1000	–	–	7	NC(=O)c1ccc(F)c2c1CC(N(CCCCn1ccc3ccc(F)cc31)C1CCC1)CO2 (centres undefined)	–
–	–	–	15	COc1cccc2c1C[C@@H](N(CCCc1c[nH]c3ccc(F)cc13)C1CCC1)CO2	–
–	–	–	16	NC(=O)c1ccc(F)c2c1CC(N(CCCc1c[nH]c3ccc(F)cc13)C1CCC1)CO2 (centres undefined)	–
776	–	–	15	CCCN(CCCCn1ccc2ccc(F)cc21)C1COc2c(F)ccc(C(N)=O)c2C1 (centres undefined)	–
435	–	–	39	CCCN(CCCCn1ccc2cccc(F)c21)C1COc2c(F)ccc(C(N)=O)c2C1 (centres undefined)	–
–	–	–	21	NC(=O)c1ccc(F)c2c1C[C@@H](N(CCCc1c[nH]c3ccc(F)cc13)C1CCC1)CO2	–
15	8.3	–	27	CNC(=O)c1ccc(F)c2c1CC(N(CCCc1c[nH]c3ccc(F)cc13)C1CCC1)CO2 (centres undefined)	–
44.7	11.3	> 2000	4	CC(C)NC(=O)c1ccc(F)c2c1CC(N(CCCc1c[nH]c3ccc(F)cc13)C1CCC1)CO2 (centres undefined)	–
> 1000	–	> 1000	29	NC(=O)c1ccc(F)c2c1CC(N(CCCc1c[nH]c3c(Cl)cccc13)C1CCC1)CO2 (centres undefined)	–
> 1000	–	–	–	NC(=O)c1ccc(F)c2c1C[C@@H](NCC1CCc3[nH]c4ccc(F)cc4c3C1)CO2 (stereo in doubt; 57b)	–
162	–	–	–	CC(CCc1c[nH]c2ccc(F)cc12)N(CC1CC1)C1COc2c(F)ccc(C(N)=O)c2C1 (single isomer, unassigned; (+)) [listing 2 of 2 here]	–
71.6	–	206	–	NC(=O)c1ccc(F)c2c1CC(N(CCCc1c[nH]c3c(F)cc(F)cc13)C1CCC1)CO2 (single isomer, unassigned; (-))	–
> 1000	–	–	–	CCCN(CCCCn1ccc2cc(F)ccc21)C1COc2c(F)ccc(C(N)=O)c2C1 (centres undefined)	–
612	–	–	20	NC(=O)c1ccc(F)c2c1CC(N(CCCc1c[nH]c3ccc(Cl)cc13)C1CCC1)CO2 (centres undefined)	–
452	–	–	–	CCCN(CCCc1c[nH]c2ccc(F)cc12)[C@@H]1COc2c(F)ccc(OC)c2C1	–
–	–	–	–	CCCN(CC1CCc2[nH]c3ccc(F)cc3c2C1)[C@H]1COc2c(F)ccc(C(N)=O)c2C1 (single isomer, unassigned; (+)) [listing 2 of 2 here]	> 1000
–	–	–	–	NC(=O)c1ccc(F)c2c1C[C@@H](N(CC1CC1)CC1CCc3[nH]c4ccc(F)cc4c3C1)CO2 (stereo in doubt; 59b) [listing 2 of 2 here]	> 1000
193	–	333	–	CC(CCc1c[nH]c2ccc(F)cc12)N(CC1CC1)C1COc2c(F)ccc(C(N)=O)c2C1 (single isomer, unassigned; (-)) [listing 2 of 2 here]	–
> 1000	–	–	23	CCCN(CCCCn1ccc2c(F)cccc21)C1COc2c(F)ccc(C(N)=O)c2C1 (centres undefined)	–
138	–	–	27	NC(=O)c1ccc(F)c2c1CC(N(CCCCn1ccc3cccc(F)c31)CC1CC1)CO2 (centres undefined)	–
1860	–	–	–	COC(=O)c1ccc(F)c2c1CC(N(CCCc1c[nH]c3ccc(F)cc13)C1CCC1)CO2 (centres undefined)	–
> 1000	–	> 1000	–	NC(=O)c1ccc(F)c2c1CC(N(CCCCn1ccc3cc(F)ccc31)C1CCC1)CO2 (centres undefined)	–
–	–	–	27	N#Cc1ccc2[nH]cc(CCCN(C3CCC3)C3COc4c(F)ccc(C(N)=O)c4C3)c2c1 (single isomer, unassigned; (+))	–
69.6	8.05	–	12	O=C(NC1CC1)c1ccc(F)c2c1CC(N(CCCc1c[nH]c3ccc(F)cc13)C1CCC1)CO2 (centres undefined)	–

Structure (SMILES)	IC50 [1] [nM]	Ki [2] [nM]	IC50 [3] [nM]	Activity (Rattus norvegicus) [%]	IC50 ([1]; jar) [nM]
NC(=O)c1ccc(F)c2c1C[C@@H](N(CC1CC1)CC1CCc3[nH]c4ccc(F)cc4c3C1)CO2 (stereo in doubt; 59a) [listing 1 of 2 here]	–	–	–	3	–
NC(=O)c1ccc(F)c2c1C[C@@H](N(CC1CC1)CC1CCc3[nH]c4ccc(F)cc4c3C1)CO2 (stereo in doubt; 59a) [listing 2 of 2 here]	> 1000	–	> 1000	–	–
NC(=O)c1ccc(F)c2c1C[C@@H](N(CC1CC1)CC1CCc3[nH]c4ccc(F)cc4c3C1)CO2 (stereo in doubt; 59b) [listing 1 of 2 here]	–	–	–	22	–
NC(=O)c1cccc2c1CC(N(CCCc1c[nH]c3ccc(F)cc13)C1CCC1)CO2 (single isomer, unassigned; (-)) [listing 1 of 2 here]	109	5.9	66	–	–
CCCN(CC1CCc2[nH]c3ccc(F)cc3c2C1)[C@H]1COc2c(F)ccc(C(N)=O)c2C1 (stereo in doubt; 58a) [listing 1 of 2 here]	–	–	–	5	–
NC(=O)c1cccc2c1CC(N(CCCc1c[nH]c3ccc(F)cc13)C1CCC1)CO2 (stereo in doubt; (+)-35e) [listing 1 of 2 here]	–	–	–	6	–
NC(=O)c1cccc2c1CC(N(CCCc1c[nH]c3ccc(F)cc13)C1CCC1)CO2 (stereo in doubt; 35e)	114	9.55	–	–	–
NC(=O)c1ccc(Cl)c2c1CC(N(CCCc1c[nH]c3ccc(F)cc13)C1CCC1)CO2 (single isomer, unassigned; (-))	–	–	–	22	–
NC(=O)c1cccc2c1CC(N(CCCc1c[nH]c3ccc(F)cc13)C1CCC1)CO2 (single isomer, unassigned; (-)) [listing 2 of 2 here]	–	–	–	10	–
NC(=O)c1cccc2c1CC(N(CCCc1c[nH]c3ccc(F)cc13)C1CCC1)CO2 (stereo in doubt; (+)-35e) [listing 2 of 2 here]	28.3	–	–	–	–
CCCN(CC1CCc2[nH]c3ccc(F)cc3c2C1)[C@H]1COc2c(F)ccc(C(N)=O)c2C1 (single isomer, unassigned; (+)) [listing 1 of 2 here]	–	–	–	15	–
COc1cccc2c1CC(N(CCCc1c[nH]c3ccc(F)cc13)C1CCC1)CO2 (centres undefined)	–	–	> 2000	15	–
NC(=O)c1ccc(Cl)c2c1CC(N(CCCc1c[nH]c3ccc(F)cc13)C1CCC1)CO2 (stereo in doubt; 35d)	56.5	3.74	> 1000	–	–
CCCN(CC1CCc2[nH]c3ccc(F)cc3c2C1)[C@H]1COc2c(F)ccc(C(N)=O)c2C1 (stereo in doubt; 58a) [listing 2 of 2 here]	> 1000	> 1000	> 1000	–	–
